Values of other authors in patent US20230046278A1, “METHOD FOR COLOURING KERATIN MATERIAL, COMPRISING THE USE OF AN ORGANIC C1-C6 ALKOXYSILANE AND TWO STRUCTURALLY DIFFERENT CELLULOSE TYPES” (Henkel AG & Co. KGaA, priority 2019, published 2023).
Converted amounts (≈) assume the structure as drawn.

Conditions: 25° C.

SMILES	solubility in water	also measured
O=C(O)C1=NN(c2ccc(S(=O)(=O)O)cc2)C(=O)C1N=Nc1ccc(S(=O)(=O)O)cc1 (centres unmarked) [Acid Yellow 23, 4,5-dihydro-5-oxo-1-(4-sulfophenyl)-4-((4-sulfophenyl)azo)-1H-pyrazole-3-carboxylic acid]	–	solubility in water (in words): readily soluble
Nc1cc(S(=O)(=O)O)cc2cc(S(=O)(=O)O)c(N=Nc3ccccc3)c(O)c12 [Acid Red 33, 5-amino-4-hydroxy-3-(phenylazo)-naphthalene-2,7-disulphonate]	2500 µg/mL (≈ 5.9 mM)	–
CCN(Cc1cccc(S(=O)(=O)O)c1)c1ccc(C(=C2C=CC(=[N+](CC)Cc3cccc(S(=O)(=O)O)c3)C=C2)c2ccccc2S(=O)(=O)[O-])cc1 [Acid Blue 9]	–	water solubility: greater than 20 % by weight

More lines, main results first:

solubility in water	SMILES	also measured
above 40 g/L	O=[N+]([O-])c1cc([N+](=O)[O-])c2ccc(S(=O)(=O)O)cc2c1O [Acid Yellow 9, 8-hydroxy-5,7-dinitro-2-naphthalenesulfonic acid]	–
more than 7 g/L	O=S(=O)(O)c1ccc(N=Nc2c(O)ccc3ccccc23)cc1 [Acid Orange 7, 4-[(2-hydroxy-1-naphthyl)azo]benzenesulfonate]	–
